Data published in ChEMBL document CHEMBL4342418, “1,2,3-Triazole-containing hybrids as potential anticancer agents: Current developments, action mechanisms and structure-activity relationships” (Eur J Med Chem, 2019).
In brackets after ≈: the same amount, converted by molar mass. Values belong to the compound of their own block, whether it stands above or below them.

What was measured:
MCF7 [1] = test: cells; assay type: functional, cell-based; details: Homo sapiens
Description: Antiproliferative activity against human MCF7 cells by MTT assay

HCT-116 = test: Antiproliferative activity against human HCT116 cells by MTT assay; assay type: functional, cell-based
A549 [2] = test: cells; assay type: functional, cell-based; details: Homo sapiens
Description: Antiproliferative activity against human A549 cells by MTT assay

PC-3 = test: Antiproliferative activity against human PC3 cells by MTT assay; assay type: functional, cell-based
K562 = test: Antiproliferative activity against human K562 cells by MTT assay; assay type: functional, cell-based
U-251 = test: Antiproliferative activity against human U251 cells by MTT assay; assay type: functional, cell-based
SK-BR-3 = test: Antiproliferative activity against human SKBR3 cells by MTT assay; assay type: functional, cell-based
[3] = Antiproliferative activity against human SMCC7721 cells by MTT assay; assay type: functional, cell-based
LNCaP = test: Antiproliferative activity against human LNCAP cells by MTT assay; assay type: functional, cell-based
K562/Adr = test: Antiproliferative activity against human K562/ADR cells by MTT assay; assay type: functional, cell-based
HFF = test: Antiproliferative activity against human HFF cells by MTT assay; assay type: cell-based
L02 = test: Antiproliferative activity against human HL7702 cells by MTT assay; assay type: cell-based
MGC-803 [4] = test: Antiproliferative activity against human MGC803 cells assessed as reduction in cell viability after 72 hrs by MTT assay; assay type: functional, cell-based; details: MGC-803, 72 h
BGC-823 = test: Antiproliferative activity against human BGC823 cells assessed as reduction in cell viability after 72 hrs by MTT assay; assay type: functional, cell-based; details: BGC-823, 72 h
SGC-7901 = test: Antiproliferative activity against human SGC7901 cells assessed as reduction in cell viability after 72 hrs by MTT assay; assay type: functional, cell-based; details: SGC-7901, 72 h
Tubulin = test: Inhibition of tubulin polymerization (unknown origin); assay type: protein-complex assay, Homo sapiens
MGC-803 [5] = test: Antitumour activity against human MGC803 cells xenografted in BALB/c nude mice assessed as inhibition of tumour growth at 60 mg/kg, ig administered for 21 days relative to control; assay type: functional; details: Mus musculus, MGC-803, po, 504 h; read-out: TGI
MGC-803 [6] = test: Antiproliferative activity against human MGC803 cells by MTT assay; assay type: functional, cell-based
NCI-H460 = test: Antiproliferative activity against human H460 cells by MTT assay; assay type: functional, cell-based
NCI-H1299 = test: Antiproliferative activity against human H1299 cells by MTT assay; assay type: functional, cell-based
Ca-Ski = test: Antiproliferative activity against human CaSki cells by MTT assay; assay type: functional, cell-based
DU-145 = test: Antiproliferative activity against human DU145 cells by SRB assay; assay type: functional, cell-based
HeLa = test: Antiproliferative activity against human HeLa cells by SRB assay; assay type: functional, cell-based
HepG2 [7] = test: Antiproliferative activity against human HepG2 cells by SRB assay; assay type: functional, cell-based
A549 [8] = test: Antiproliferative activity against human A549 cells by SRB assay; assay type: functional, cell-based
SK-OV-3 = test: Antiproliferative activity against human SKOV3 cells by SRB assay; assay type: functional, cell-based
MCF7 [9] = test: Antiproliferative activity against human MCF7 cells by SRB assay; assay type: functional, cell-based
MCF7-DOX = test: Antiproliferative activity against human MCF7/Dox cells by SRB assay; assay type: functional, cell-based
HepG2 [10] = test: Potency index, ratio of etoposide IC50 to test compound IC50 for antiproliferative activity against human HepG2 cells by SRB assay; assay type: functional; details: pooled result: one value given for 7 cell lines, strains, targets or settings
MCF7 [11] = test: Antiproliferative activity against human MCF7 cells assessed as reduction in cell viability after 72 hrs by MTT assay; assay type: functional, cell-based; details: MCF7, 72 h
A549 [12] = test: Antiproliferative activity against human A549 cells assessed as reduction in cell viability after 72 hrs by MTT assay; assay type: functional, cell-based; details: A549, 72 h
HepG2 [13] = test: Antiproliferative activity against human HepG2 cells assessed as reduction in cell viability after 72 hrs by MTT assay; assay type: functional, cell-based; details: HepG2, 72 h
A549 [14] = test: Potency index, ratio of foretinib IC50 to test compound IC50 for antiproliferative activity against human A549 cells; assay type: functional
HepG2 [15] = test: Potency index, ratio of foretinib IC50 to test compound IC50 for antiproliferative activity against human HepG2 cells; assay type: functional
MCF7 [16] = test: Potency index, ratio of foretinib IC50 to test compound IC50 for antiproliferative activity against human MCF7 cells; assay type: functional
MDA-MB-231 [17] = test: Antiproliferative activity against human MDA-MB-231 cells assessed as reduction in cell viability after 72 hrs by MTT assay; assay type: functional, cell-based; details: MDA-MB-231, 72 h, read-out: IC50
MDA-MB-468 [18] = test: Antiproliferative activity against human MDA-MB-468 cells assessed as reduction in cell viability after 72 hrs by MTT assay; assay type: functional, cell-based; details: MDA-MB-468, 72 h
MDA-MB-231 [19] = test: Potency index, ratio of 5-fluorouracil IC50 to test compound IC50 for antiproliferative activity against human MDA-MB-231 cells; assay type: functional
MDA-MB-468 [20] = test: Potency index, ratio of 5-fluorouracil IC50 to test compound IC50 for antiproliferative activity against human MDA-MB-468 cells; assay type: functional
MCF7 [21] = test: Potency index, ratio of 5-fluorouracil IC50 to test compound IC50 for antiproliferative activity against human MCF7 cells; assay type: functional

Compound: COC(=O)c1ccc(-c2cn(CC(=O)O[C@H]3c4cc5c(cc4[C@@H](c4cc(OC)c(OC)c(OC)c4)[C@H]4C(=O)OC[C@@H]43)OCO5)nn2)cc1
IC50 (MCF7 [1]): 21.1 to 124 µM
IC50 (HCT-116): 19.6 to 55.3 µM
IC50 (A549 [2]): 21.1 to 124 µM
IC50 (PC-3): 21.1 to 124 µM
IC50 (K562): 19.6 to 55.3 µM
IC50 (U-251): 19.6 to 55.3 µM
IC50 (SK-BR-3): 19.6 to 55.3 µM
IC50 [3]: 19.6 to 55.3 µM
IC50 (LNCaP): 19.6 to 55.3 µM
IC50 (K562/Adr): 19.6 to 55.3 µM
IC50 (HFF): 195 µM
IC50 (L02): 565 µM

IC50 (MGC-803 [4]): 0.4 to 3.5 µg/mL (≈ 0.97 to 8.49 µM)
IC50 (BGC-823): 0.4 to 3.5 µg/mL (≈ 0.97 to 8.49 µM)
IC50 (SGC-7901): 0.4 to 3.5 µg/mL (≈ 0.97 to 8.49 µM)
IC50 (Tubulin): 2.4 µM
Compound: Cc1cc(=O)oc2cc(OCc3cn(-c4ccc(S(N)(=O)=O)cc4)nn3)ccc12
inhibition in vivo at 60 mg/kg (MGC-803 [5]): 64.2%

IC50 (MGC-803 [6]): 6.05 to 25.9 µM
IC50 (NCI-H460): 6.05 to 25.9 µM
IC50 (NCI-H1299): 6.05 to 25.9 µM
Compound: CO[C@H]1C[C@@H]2CC[C@@H](C)[C@@](O)(O2)C(=O)C(=O)N2CCCC[C@H]2C(=O)O[C@H]([C@H](C)C[C@@H]2CC[C@@H](OCCCn3cc(CNc4ccc(Cl)cc4Cl)nn3)[C@H](OC)C2)CC(=O)[C@H](C)/C=C(\C)[C@@H](O)[C@@H](OC)C(=O)[C@H](C)C[C@H](C)/C=C/C=C/C=C/1C
IC50 (Ca-Ski): 6.05 to 25.9 µM

IC50 (DU-145): 0.18 to 9.92 µM
IC50 (HeLa): 0.18 to 9.92 µM
IC50 (HepG2 [7]): 0.18 to 9.92 µM
IC50 (A549 [8]): 0.18 to 9.92 µM
IC50 (SK-OV-3): 0.18 to 9.92 µM
IC50 (MCF7 [9]): 0.18 to 9.92 µM
IC50 (MCF7-DOX): 0.18 to 9.92 µM
Compound: CO/N=C1\C(=O)N(CCOCCn2cc(CN3C(=O)/C(=N\OC)c4ccccc43)nn2)c2ccccc21
Ratio IC50 (HepG2 [10]): 1.55

IC50 (MCF7 [11]): 0.5 to 1 µM
IC50 (A549 [12]): 0.5 to 1 µM
IC50 (HepG2 [13]): 0.5 to 1 µM
Compound: O=C(Nc1ccc(Oc2ncnc3ccsc23)cc1)c1nnn(-c2ccc(Cl)cc2)c1C(F)(F)F
Ratio IC50 (A549 [14]): 3.6 - 5.2
Ratio IC50 (HepG2 [15]): 3.6 - 5.2
Ratio IC50 (MCF7 [16]): 3.6 - 5.2

IC50 (MCF7 [11]): 0.8 to 1.7 µM
IC50 (MDA-MB-231 [17]): 0.8 to 1.7 µM
IC50 (MDA-MB-468 [18]): 0.8 to 1.7 µM
Compound: COc1cc(Cn2cc(CN3c4ccccc4Sc4ccccc43)nn2)cc(OC)c1OC
Ratio IC50 (MDA-MB-231 [19]): 6.2 - 15.8
Ratio IC50 (MDA-MB-468 [20]): 6.2 - 15.8
Ratio IC50 (MCF7 [21]): 6.2 - 15.8
